Our source for the IC50 values is patent publication US20240148821A1, “PHARMACEUTICAL USE OF CYCLIC PEPTIDE COMPOUND” (CHUGAI SEIYAKU KABUSHIKI KAISHA, priority 2021, published 2024).

Numbered stars: 1 amine (or outer) side, 2 acyl side, 3 side chain; on linkers, the order of the positions; unused ones are H or OH. Bridge positions count the residues as written; N and C are the ends. Square brackets hold non-standard residues; d marks the D form. Peptide text beside a SMILES is read from it. * marks the point of attachment. hPhe(3-Cl-4-CF3) = N[C@@H](CCc1ccc(C(F)(F)F)c(Cl)c1)C(=O)O; hPhe(4-CF3) = N[C@@H](CCc1ccc(C(F)(F)F)cc1)C(=O)O; X37 = CC(C)(C)NC(=O)COC[C@H](CC(=O)[*:1])N[*:2]; NMePhe(4-Me) = CN[C@@H](Cc1ccc(C)cc1)C(=O)O; NMeGly(cPent) = CN[C@H](C(=O)O)C1CCCC1; NMeGly(cBu) = CN[C@H](C(=O)O)C1CCC1; NMeCha = CN[C@@H](CC1CCCCC1)C(=O)O; NMeGly(cPr) = CN[C@H](C(=O)O)C1CC1; NMeCba = CN[C@@H](CC1CCC1)C(=O)O; NMeF = CN[C@@H](Cc1ccccc1)C(=O)O; NMeD = CN[C@@H](CC(=O)O)C(=O)O; NMeL = CN[C@@H](CC(C)C)C(=O)O; NMeNle = CCCC[C@H](NC)C(=O)O; NMeNva = CCC[C@H](NC)C(=O)O; NMeV = CN[C@H](C(=O)O)C(C)C; d(β3hA) = C[C@@H](N)CC(=O)O; NMeAbu = CC[C@H](NC)C(=O)O; NMeS = CN[C@@H](CO)C(=O)O; NMeA = CN[C@@H](C)C(=O)O; Piperidide = C1CCN(*)CC1; dNMeA = CN[C@H](C)C(=O)O; Ac5c = NC1(C(=O)O)CCCC1; Aze = O=C(O)[C@@H]1CCN1; Aib = CC(C)(N)C(=O)O; Isopentyl = CC(C)CC*; Sar = CNCC(=O)O

What is called IC50 is the concentration needed to halve the response being measured.

The target of the assay is protein-protein interaction between Kras and SOS1 (biotin-tagged human Kras loaded with GDP, His-tagged human SOS1) (Homo sapiens (Human), UniProt P01116, G12D). The experiment in a line: Protein-protein interaction inhibition between Kras and SOS1 (KrasG12D-SOS PPI) using AlphaScreen.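 Note: kras produced in E. coli, Ni-coupled donor beads and streptavidin acceptor beads, excitation 680 nm with emission detected at 520–620 nm via singlet oxygen transfer.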 In kind it is biochemical. The following applies: AlphaScreen; biotin-tagged human Kras loaded with GDP, His-tagged human SOS1; read-out: KRAS G12D-SOS PPI IC50.
On to `CC[C@H](C)[C@@H]1NC(=O)[C@H](C)N(C)C(=O)C[C@@H](C)NC(=O)[C@H](C2CCCC2)N(C)C(=O)C2(CCCC2)NC(=O)[C@@H]2CCCN2C(=O)[C@H](CCc2ccc(C(F)(F)F)c(Cl)c2)NC(=O)[C@H]2CCCN2C(=O)[C@H](Cc2ccc(C)cc2)N(C)C(=O)CN(C)C(=O)CN(C)C1=O` [Compound 1525] (cyclo([Ac5c][NMeGly(cPent)][d(β3hA)][NMeA]I[Sar][Sar][NMePhe(4-Me)][dP][hPhe(3-Cl-4-CF3)]P)), for which the IC50 is 0.1 µM.
As for `CC[C@H](C)[C@@H]1NC(=O)[C@H](CC(C)C)N(C)C(=O)C[C@@H](C)NC(=O)[C@H](C2CCCC2)N(C)C(=O)C2(CCCC2)NC(=O)[C@@H]2CCCN2C(=O)[C@H](CCc2ccc(C(F)(F)F)c(Cl)c2)NC(=O)[C@@H](C)N(C)C(=O)[C@H](CC2CCCCC2)N(C)C(=O)[C@@H]2CCN2C(=O)CN(C)C1=O` [Compound 1531] (cyclo([Ac5c][NMeGly(cPent)][d(β3hA)][NMeL]I[Sar][Aze][NMeCha][dNMeA][hPhe(3-Cl-4-CF3)]P)), the figure is 0.23 µM; as for `CC[C@H](C)[C@@H]1NC(=O)[C@H](CC(C)C)N(C)C(=O)C[C@@H](COCC(=O)NC(C)(C)C)NC(=O)[C@H](CC(C)C)N(C)C(=O)C(C)(C)NC(=O)[C@H](CC(C)C)N(C)C(=O)[C@H](CCc2ccc(C(F)(F)F)cc2)NC(=O)CN(C)C(=O)[C@H](COCCC(C)C)N(C)C(=O)CN(C)C(=O)CN(C)C1=O` [Compound 1538] ([NMeL]I[Sar][Sar][NMeS](Isopentyl)[Sar][hPhe(4-CF3)][NMeL][Aib][NMeL]; linker N-C via X37), 0.11 µM.
As for `CCCC[C@H]1C(=O)N2CC[C@H]2C(=O)N(C)[C@@H](CC2CCCCC2)C(=O)N(C)CC(=O)N[C@@H](CCc2ccc(C(F)(F)F)c(Cl)c2)C(=O)N2CCC[C@H]2C(=O)NC2(CCCC2)C(=O)N(C)[C@@H](C(C)C)C(=O)N[C@H](C)CC(=O)N(C)[C@@H](CC(C)C)C(=O)N[C@@H]([C@@H](C)CC)C(=O)N1C` [Compound 1548] (cyclo([Ac5c][NMeV][d(β3hA)][NMeL]I[NMeNle][Aze][NMeCha][Sar][hPhe(3-Cl-4-CF3)]P)), the half-inhibitory concentration (IC50) was determined as 0.14 µM.
`CC[C@H](C)[C@@H]1NC(=O)[C@H](CC(C)C)N(C)C(=O)C[C@@H](C(=O)N2CCCCC2)N(C)C(=O)[C@H](C(C)C)N(C)C(=O)C2(CCCC2)NC(=O)[C@@H]2CCCN2C(=O)[C@H](CCc2ccc(C(F)(F)F)c(Cl)c2)NC(=O)CN(C)C(=O)[C@H](CC2CCCCC2)N(C)C(=O)[C@@H]2CCN2C(=O)[C@H](C2CCC2)N(C)C1=O` [Compound 1554] ([NMeL]I[NMeGly(cBu)][Aze][NMeCha][Sar][hPhe(3-Cl-4-CF3)]P[Ac5c][NMeV][NMeD]-Piperidide; lactam N-11): the half-inhibitory concentration (IC50) was 0.2 µM.
Turning to `CC[C@H](C)[C@@H]1NC(=O)[C@H](CC(C)C)N(C)C(=O)C[C@@H](C(=O)N2CCCCC2)N(C)C(=O)[C@H](C(C)C)N(C)C(=O)C2(CCCC2)NC(=O)[C@@H]2CCCN2C(=O)[C@H](CCc2ccc(C(F)(F)F)c(Cl)c2)NC(=O)CN(C)C(=O)[C@H](CC2CCCCC2)N(C)C(=O)[C@@H]2CCN2C(=O)[C@H](CC(C)C)N(C)C1=O` [Compound 1558] ([NMeL]I[NMeL][Aze][NMeCha][Sar][hPhe(3-Cl-4-CF3)]P[Ac5c][NMeV][NMeD]-Piperidide; lactam N-11), the IC50 was 0.071 µM.
For `CCC[C@H]1C(=O)N2CC[C@H]2C(=O)N(C)[C@@H](CC2CCCCC2)C(=O)N(C)CC(=O)N[C@@H](CCc2ccc(C(F)(F)F)c(Cl)c2)C(=O)N2CCC[C@H]2C(=O)NC2(CCCC2)C(=O)N(C)[C@@H](C(C)C)C(=O)N[C@H](C)CC(=O)N(C)[C@@H](CC(C)C)C(=O)N[C@@H]([C@@H](C)CC)C(=O)N1C` [Compound 1560] (cyclo([Ac5c][NMeV][d(β3hA)][NMeL]I[NMeNva][Aze][NMeCha][Sar][hPhe(3-Cl-4-CF3)]P)) the value was 0.16 µM; for `CC[C@H](C)[C@@H]1NC(=O)[C@H](CC(C)C)N(C)C(=O)C[C@@H](C(=O)N2CCCCC2)N(C)C(=O)[C@H](C(C)C)N(C)C(=O)C2(CCCC2)NC(=O)[C@@H]2CCCN2C(=O)[C@H](CCc2ccc(C(F)(F)F)c(Cl)c2)NC(=O)CN(C)C(=O)[C@H](CC2CCCCC2)N(C)C(=O)[C@@H]2CCN2C(=O)[C@H](Cc2ccccc2)N(C)C1=O` [Compound 1561] ([NMeL]I[NMeF][Aze][NMeCha][Sar][hPhe(3-Cl-4-CF3)]P[Ac5c][NMeV][NMeD]-Piperidide; lactam N-11), 0.033 µM; for `CCC[C@H]1C(=O)N[C@@H]([C@@H](C)CC)C(=O)N(C)[C@@H](C)C(=O)N2CC[C@H]2C(=O)N(C)[C@@H](CC2CCCCC2)C(=O)N(C)CC(=O)N[C@@H](CCc2ccc(C(F)(F)F)c(Cl)c2)C(=O)N2CCC[C@H]2C(=O)NC2(CCCC2)C(=O)N(C)[C@@H](C(C)C)C(=O)N[C@H](C)CC(=O)N1C` [Compound 1564] (cyclo([Ac5c][NMeV][d(β3hA)][NMeNva]I[NMeA][Aze][NMeCha][Sar][hPhe(3-Cl-4-CF3)]P)), 0.038 µM.
With `CCCC[C@H]1C(=O)N[C@@H]([C@@H](C)CC)C(=O)N(C)[C@@H](C)C(=O)N2CC[C@H]2C(=O)N(C)[C@@H](CC2CCCCC2)C(=O)N(C)CC(=O)N[C@@H](CCc2ccc(C(F)(F)F)c(Cl)c2)C(=O)N2CCC[C@H]2C(=O)NC2(CCCC2)C(=O)N(C)[C@@H](C(C)C)C(=O)N[C@H](C)CC(=O)N1C` [Compound 1568] (cyclo([Ac5c][NMeV][d(β3hA)][NMeNle]I[NMeA][Aze][NMeCha][Sar][hPhe(3-Cl-4-CF3)]P)), the 50% inhibitory concentration (IC50) was determined as 0.094 µM.
Turning to `CC[C@H](C)[C@@H]1NC(=O)[C@H](CC(C)C)N(C)C(=O)C[C@@H](C(=O)N2CCCCC2)N(C)C(=O)[C@H](C(C)C)N(C)C(=O)C2(CCCC2)NC(=O)[C@@H]2CCCN2C(=O)[C@H](CCc2ccc(C(F)(F)F)c(Cl)c2)NC(=O)CN(C)C(=O)[C@H](CC2CCCCC2)N(C)C(=O)[C@@H]2CCN2C(=O)[C@H](CC)N(C)C1=O` [Compound 1569] ([NMeL]I[NMeAbu][Aze][NMeCha][Sar][hPhe(3-Cl-4-CF3)]P[Ac5c][NMeV][NMeD]-Piperidide; lactam N-11), the IC50 stood at 0.016 µM.
Consider `CC[C@H](C)[C@@H]1NC(=O)[C@H](CC(C)C)N(C)C(=O)C[C@@H](C)NC(=O)[C@H](C(C)C)N(C)C(=O)C2(CCCC2)NC(=O)[C@@H]2CCCN2C(=O)[C@H](CCc2ccc(C(F)(F)F)c(Cl)c2)NC(=O)CN(C)C(=O)[C@H](CC2CCCCC2)N(C)C(=O)[C@@H]2CCN2C(=O)[C@H](C2CC2)N(C)C1=O` [Compound 1586] (cyclo([Ac5c][NMeV][d(β3hA)][NMeL]I[NMeGly(cPr)][Aze][NMeCha][Sar][hPhe(3-Cl-4-CF3)]P)), for which the half-inhibitory concentration (IC50) stood at 0.059 µM.
Turning to `CC[C@H](C)[C@@H]1NC(=O)[C@H](CC(C)C)N(C)C(=O)C[C@@H](C(=O)N2CCCCC2)N(C)C(=O)[C@H](C(C)C)N(C)C(=O)C2(CCCC2)NC(=O)[C@@H]2CCCN2C(=O)[C@H](CCc2ccc(C(F)(F)F)c(Cl)c2)NC(=O)CN(C)C(=O)[C@H](CC2CCCCC2)N(C)C(=O)[C@@H]2CCN2C(=O)[C@H](C(C)C)N(C)C1=O` [Compound 1592] ([NMeL]I[NMeV][Aze][NMeCha][Sar][hPhe(3-Cl-4-CF3)]P[Ac5c][NMeV][NMeD]-Piperidide; lactam N-11), the IC50 turned out to be 0.21 µM.
Take `CC[C@H](C)[C@@H]1NC(=O)[C@H](CC(C)C)N(C)C(=O)C[C@@H](C)NC(=O)[C@H](C(C)C)N(C)C(=O)C2(CCCC2)NC(=O)[C@@H]2CCCN2C(=O)[C@H](CCc2ccc(C(F)(F)F)c(Cl)c2)NC(=O)CN(C)C(=O)[C@H](CC2CCCCC2)N(C)C(=O)[C@@H]2CCN2C(=O)[C@H](CC)N(C)C1=O` [Compound 1593] (cyclo([Ac5c][NMeV][d(β3hA)][NMeL]I[NMeAbu][Aze][NMeCha][Sar][hPhe(3-Cl-4-CF3)]P)): the half-maximal inhibitory concentration (IC50) was 0.14 µM.
On to `CCCC[C@H]1C(=O)N2CC[C@H]2C(=O)N(C)[C@@H](CC2CCCCC2)C(=O)N(C)CC(=O)N[C@@H](CCc2ccc(C(F)(F)F)c(Cl)c2)C(=O)N2CCC[C@H]2C(=O)NC2(CCCC2)C(=O)N(C)[C@@H](C(C)C)C(=O)N(C)[C@H](C(=O)N2CCCCC2)CC(=O)N(C)[C@@H](CC(C)C)C(=O)N[C@@H]([C@@H](C)CC)C(=O)N1C` [Compound 1596] ([NMeL]I[NMeNle][Aze][NMeCha][Sar][hPhe(3-Cl-4-CF3)]P[Ac5c][NMeV][NMeD]-Piperidide; lactam N-11), for which the IC50 was found to be 0.023 µM.
For `CCC[C@H]1C(=O)N2CC[C@H]2C(=O)N(C)[C@@H](CC2CCCCC2)C(=O)N(C)CC(=O)N[C@@H](CCc2ccc(C(F)(F)F)c(Cl)c2)C(=O)N2CCC[C@H]2C(=O)NC2(CCCC2)C(=O)N(C)[C@@H](C(C)C)C(=O)N(C)[C@H](C(=O)N2CCCCC2)CC(=O)N(C)[C@@H](CC(C)C)C(=O)N[C@@H]([C@@H](C)CC)C(=O)N1C` [Compound 1601] ([NMeL]I[NMeNva][Aze][NMeCha][Sar][hPhe(3-Cl-4-CF3)]P[Ac5c][NMeV][NMeD]-Piperidide; lactam N-11) the value was 0.022 µM; for `CC[C@H](C)[C@@H]1NC(=O)[C@H](CC(C)C)N(C)C(=O)C[C@@H](C(=O)N2CCCCC2)N(C)C(=O)[C@H](C(C)C)N(C)C(=O)C2(CCCC2)NC(=O)[C@@H]2CCCN2C(=O)[C@H](CCc2ccc(C(F)(F)F)c(Cl)c2)NC(=O)CN(C)C(=O)[C@H](CC2CCCCC2)N(C)C(=O)[C@@H]2CCN2C(=O)[C@H](CC2CCC2)N(C)C1=O` [Compound 1603] ([NMeL]I[NMeCba][Aze][NMeCha][Sar][hPhe(3-Cl-4-CF3)]P[Ac5c][NMeV][NMeD]-Piperidide; lactam N-11), 0.094 µM; for `CCCC[C@H]1C(=O)N[C@@H]([C@@H](C)CC)C(=O)N(C)[C@@H](C)C(=O)N2CC[C@H]2C(=O)N(C)[C@@H](CC2CCCCC2)C(=O)N(C)CC(=O)N[C@@H](CCc2ccc(C(F)(F)F)c(Cl)c2)C(=O)N2CCC[C@H]2C(=O)NC2(CCCC2)C(=O)N(C)[C@@H](C(C)C)C(=O)N(C)[C@H](C(=O)N2CCCCC2)CC(=O)N1C` [Compound 1616] ([NMeNle]I[NMeA][Aze][NMeCha][Sar][hPhe(3-Cl-4-CF3)]P[Ac5c][NMeV][NMeD]-Piperidide; lactam N-11), 0.012 µM.
